Measured values reported in patent EP0377489A2, “Purified C5a receptor from human polymorphonuclear leukocytes” (MERCK & CO. INC., priority 1989, dated 1990).

What was measured:
solubilized C5a receptor = assay: Inhibition of C5a binding to solubilized or purified receptor by nucleotides; set-up: species or system human
Experimental: -All assays, except where noted, were performed at 4°C, with freshly thawed membranes or freshly prepared soluble receptor. To assay intact membranes, assay buffer (50 mM HEPES, pH 7.2, containing 1 mM CaCl₂, 5 mM MgCl₂, 0.1 mM PMSF, 0.1% bacitracin, and 0.5% bovine serum albumin), ¹²⁵I-C5a (typically 0.1 ng), and membrane (typically 0.5 µg) were added sequentially to a final volume of 200 µl. After incubation for 60-90 minutes 2 ml of assay buffer was added, the solution mixed, and the sample filtered through either a Whatman® GF/C filter treated with 0.33% polyethyleneimine or an untreated Millipore®GVWP filter. […] The filters were then counted in a Packard 460 γ-counter. Nonspecific backgrounds were determined by including 20 ng or more of unlabled C5a in the incubation mixture. To assay soluble receptor, assay buffer, solubilized membrane (typically 5 µl) and ¹²⁵I-C5a were mixed to a final volume of 200 µl and incubated for 15-30 minutes, at which time 500 µl of 0.1% bovine γ-globulin and 500 µl of 30% polyethylene glycol were added sequentially with vigorous mixing. After an additional 5 minutes, the sample was filtered and washed with 2 ml of a 9% PEG solution. (Precipitation is essentially complete in less than one minute and the precipitated receptor-­ligand complex is stable for more than 30 minutes.)
As shown in Figure 5 membranes were solubilized in digitonin and assayed for binding activity in the presence of increasing amounts of GTPγS.

[1] = system: C5a receptor from PMN membranes; assay: Release of binding sites from the membrane: total binding activity of detergent extracts at saturation compared with intact membrane; set-up: species or system human
Experimental: In additional experiments (results not shown) the ability of digitonin and β-dodecyl maltoside to release binding sites from the membrane was determined by comparing the total binding activity of the extracts, at saturation, with that of an equivalent amount of intact membrane. In the two experiments in which a direct comparison was made the efficiencies of the detergents appeared to be similar, both solubilized 30-35% of the receptors initially present in the membrane. However, over the course of the work we did observe variability from experiment to experiment and it is our impression that, on average, digitonin was more efficient than β-dodecyl maltoside (for an example, see Table I).

| receptors initially present in the membrane solubilized [1] | Compound | maximum inhibition of C5a binding (solubilized C5a receptor; digitonin solubilized membranes) [%] | IC50 (solubilized C5a receptor; inhibition of C5a binding, digitonin solubilized membranes, read-out: IC₅₀) [nM] | inhibition of binding of C5a to the purified receptor (solubilized C5a receptor; purified receptor, 3 different preparations) |
| --- | --- | --- | --- | --- |
| – | Nc1nc2c(ncn2[C@@H]2O[C@H](COP(=O)(O)OP(=O)(O)OP(O)(O)=S)[C@@H](O)[C@H]2O)c(=O)[nH]1 [GTPγS] | 85 | 10 | 27-50% |
| 30-35% | CCCCCCCCCCCCO[C@@H]1O[C@H](CO)[C@@H](O[C@H]2O[C@H](CO)[C@@H](O)[C@H](O)[C@H]2O)[C@H](O)[C@H]1O [β-Dodecyl maltoside] | – | – | – |
